# Assay results from US7205343B2, “Stabilized bioactive preparations and method of use” (priority 1997, dated 2007).
# What was measured:
# [1] = Gentamicin biodistribution in lung lobes by immunoassay; assay type: in vivo, New Zealand white rabbits; details: rabbits; 5 mg/kg; one hour post-administration
# Excerpt: Individual lobes of the lungs were collected and analyzed quantitatively for gentamicin by an immunoassay method. […] Excellent biodistribution across the lung lobes was observed following either IM or LDI administration.
# Streptococcus pneumoniae = assay: Acute pneumonia model, survival after antibiotic treatment; assay type: in vivo, Male Wistar rats; details: rats inoculated intratracheally with 10^9 cfu S. pneumoniae; 10 mg ampicillin intramuscular one day after inoculation
# Excerpt: Male Wistar rats […] were inoculated intratracheally with 10^9 colony forming units of Streptococcus pneumoniae. The model is an acute pneumonia model with 100% of untreated control animals dying within 4 days of inoculation.
# [2] = parameters: species or system rats; details: Wistar, rat, in vivo
# Method: Ampicillin concentrations in lung tissue and serum were measured for the two treatment groups in Example XV by a bioassay method. In this method, 60 μl of lung tissue homogenate, or serum obtained from the rats at various points after dosing is placed on a sterile disk. The desk is them placed on an agar plate covered with S. pneumoniae and incubated for 24 hr. […] The no-growth zones were quantitated, and concentrations of antibiotic were calculated based on a standard curve.
# [3] = Surfactant adsorption/spreading at the air/water interface; assay type: physicochemical
# Excerpt: Stabilized dispersions formed according to the present invention provide for enhanced surfactant spreading at the pulmonary air/water interface. In this regard, the equilibrium surface tension of dimyristoylphosphatidylcholine is ca. 22 mN/m. […] The slow adsorption for liposomes is due to the slow molecular diffusion of DMPC through the water phase. […] This rapid spreading and reduction of surface tension is indicative of what would occur upon contacting the perforated microstructures with a wetted pulmonary membrane.
# [4] = Plasma insulin pharmacokinetics after LDI or IM administration (radioimmunoassay); assay type: in vivo; details: fasting rabbits
# serum glucose = assay: Serum glucose levels after LDI or IM insulin administration; assay type: in vivo; details: fasting rabbits
# Method: In the case of LDI administration, rabbits were anesthetized, intubated, placed on a respirator, and their lungs were instilled with ca. 4.5 ml/kg of perflubron. […] Control animals were injected IM with a similar dose of insulin (Humulin R).
compound,measurement,setting,value
gentamicin,lung gentamicin concentrations following LDI relative to IM,[1],ca. 2 orders of magnitude higher
CC1(C)S[C@@H]2[C@H](NC(=O)[C@H](N)c3ccccc3)C(=O)N2[C@H]1C(=O)O [Ampicillin],animals surviving to 10 days,Streptococcus pneumoniae,27%
same,local lung concentrations with LDI delivery relative to IM,[2],250 times higher
same,persistence of local lung concentrations with LDI delivery,[2],persisted for several days
same,persistence of serum levels following LDI administration,[2],at least 4 hours
same,serum ampicillin levels following IM administration,[2]; 2 h,undetectable
"CCCCCCCCCCCCCC(=O)OC[C@H](COP(=O)([O-])OCC[N+](C)(C)C)OC(=O)CCCCCCCCCCCCC [DMPC, dimyristoylphosphatidylcholine]",equilibrium surface tension,[3],ca. 22 mN/m
Human Insulin,Cmax,"[4]; IM, Humulin R, dose similar to 0.86 IU/kg, plasma insulin",110.5 μU/ml
same,AUC,"[4]; IM, Humulin R, plasma insulin",20770 μU min/ml
same,Tmax,"[4]; IM, Humulin R, plasma insulin",60 min
same,AUC,"[4]; LDI (4.5 ml/kg perflubron), Example XI formulation, 0.86 IU/kg",11100 μU min/ml
same,Cmax,"[4]; LDI (4.5 ml/kg perflubron), Example XI formulation, 0.86 IU/kg, plasma insulin",210.4 μU/ml
same,Serum glucose level,"serum glucose; IM Humulin R, 0 min",184.2 mg/dL
same,Serum glucose level,"serum glucose; IM Humulin R, 5 min",253.6 mg/dL
same,Serum glucose level,"serum glucose; IM Humulin R, 10 min",256.0 mg/dL
same,Serum glucose level,"serum glucose; IM Humulin R, 15 min",216.8 mg/dL
same,Serum glucose level,"serum glucose; IM Humulin R, 30 min",168.2 mg/dL
same,Serum glucose level,"serum glucose; IM Humulin R, 60 min",82.0 mg/dL
same,Serum glucose level,"serum glucose; IM Humulin R, 90 min",48.2 mg/dL
same,Serum glucose level,"serum glucose; IM Humulin R, 120 min",18.0 mg/dL
same,Serum glucose level,"serum glucose; IM Humulin R, 150 min",29.4 mg/dL
same,Serum glucose level,"serum glucose; IM Humulin R, 180 min",28.8 mg/dL
same,Serum glucose level,"serum glucose; IM Humulin R, 240 min",29.4 mg/dL
same,Serum glucose level,"serum glucose; IM Humulin R, 360 min",115.8 mg/dL
same,Serum glucose level,"serum glucose; LDI Example XI formulation in perflubron, 0.86 IU/kg, 0 min",175.7 mg/dL
same,Serum glucose level,"serum glucose; LDI Example XI formulation in perflubron, 0.86 IU/kg, 5 min",218.8 mg/dL
same,Serum glucose level,"serum glucose; LDI Example XI formulation in perflubron, 0.86 IU/kg, 10 min",211.7 mg/dL
same,Serum glucose level,"serum glucose; LDI Example XI formulation in perflubron, 0.86 IU/kg, 15 min",198.2 mg/dL
same,Serum glucose level,"serum glucose; LDI Example XI formulation in perflubron, 0.86 IU/kg, 30 min",143.3 mg/dL
same,Serum glucose level,"serum glucose; LDI Example XI formulation in perflubron, 0.86 IU/kg, 60 min",83.2 mg/dL
same,Serum glucose level,"serum glucose; LDI Example XI formulation in perflubron, 0.86 IU/kg, 90 min",38.2 mg/dL
same,Serum glucose level,"serum glucose; LDI Example XI formulation in perflubron, 0.86 IU/kg, 120 min",31.2 mg/dL
same,Serum glucose level,"serum glucose; LDI Example XI formulation in perflubron, 0.86 IU/kg, 150 min",31.7 mg/dL
same,Serum glucose level,"serum glucose; LDI Example XI formulation in perflubron, 0.86 IU/kg, 180 min",33.4 mg/dL
same,Serum glucose level,"serum glucose; LDI Example XI formulation in perflubron, 0.86 IU/kg, 240 min",49.2 mg/dL
